# From ChEMBL document CHEMBL3232998, “Spiromastixones A-O, antibacterial chlorodepsidones from a deep-sea-derived Spiromastix sp. fungus” (J Nat Prod, 2014)
# Assays:
# Enterococcus faecium [1] = experiment: Antibacterial activity against vancomycin-resistant Enterococcus faecium 12-1 after 18 hrs by broth microdilution method; assay type: functional, organism-based; conditions: 12-1, 18 h, read-out: IC50
# Escherichia coli [2] = experiment: Antibacterial activity against extended spectrum beta-lactamase-deficient Escherichia coli 1515 after 18 hrs by broth microdilution method; assay type: functional, organism-based; conditions: Escherichia coli, 1515, 18 h
# Escherichia coli [3] = experiment: Antibacterial activity against extended spectrum beta-lactamase-deficient Escherichia coli 12-14 after 18 hrs by broth microdilution method; assay type: functional, organism-based; conditions: 12-14, 18 h, read-out: IC50
# Bacillus thuringiensis = experiment: Antibacterial activity against Bacillus thuringiensis SCSIO BT01 after 18 hrs by broth microdilution method; assay type: functional; conditions: SCSIO BT01, 18 h
# Klebsiella pneumoniae [4] = experiment: Antibacterial activity against extended spectrum beta-lactamase-deficient Klebsiella pneumoniae 7 after 18 hrs by broth microdilution method; assay type: functional, organism-based; conditions: Klebsiella pneumoniae, 7, 18 h; read-out: IC50
# Staphylococcus aureus [5] = experiment: Antibacterial activity against methicillin-sensitive Staphylococcus aureus 12-28 after 18 hrs by broth microdilution method; assay type: functional, organism-based; conditions: 12-28, 18 h
# [6] = tested on: Staphylococcus epidermidis; experiment: Antibacterial activity against methicillin-sensitive Staphylococcus epidermidis 12-6 after 18 hrs by broth microdilution method; assay type: functional, organism-based; conditions: 12-6, 18 h
# Staphylococcus aureus [7] = experiment: Antibacterial activity against Staphylococcus aureus ATCC 29213 after 18 hrs by broth microdilution method; assay type: functional; conditions: ATCC 29213, 18 h
# [8] = tested on: Staphylococcus epidermidis; experiment: Antibacterial activity against methicillin-sensitive Staphylococcus epidermidis ATCC 12228 after 18 hrs by broth microdilution method; assay type: functional, organism-based; conditions: ATCC 12228, 18 h, read-out: IC50
# Enterococcus faecalis [9] = experiment: Antibacterial activity against vancomycin-resistant Enterococcus faecalis 09-9 after 18 hrs by broth microdilution method; assay type: functional, organism-based; conditions: 09-9, 18 h, read-out: IC50
# Klebsiella pneumoniae [10] = experiment: Antibacterial activity against extended spectrum beta-lactamase producing Klebsiella pneumoniae 12-8 after 18 hrs by broth microdilution method; assay type: functional, organism-based; conditions: 12-8, 18 h, read-out: IC50
# Enterococcus faecalis [11] = experiment: Antibacterial activity against vancomycin-sensitive Enterococcus faecalis ATCC 29212 after 18 hrs by broth microdilution method; assay type: functional, organism-based; conditions: ATCC 29212, 18 h, read-out: IC50
# Klebsiella pneumoniae [12] = experiment: Antibacterial activity against NDM-1 producing Klebsiella pneumoniae ATCC BAA-2146 after 18 hrs by broth microdilution method; assay type: functional, organism-based; conditions: ATCC BAA-2146, 18 h, read-out: IC50
# Staphylococcus aureus [13] = experiment: Antibacterial activity against methicillin-sensitive Staphylococcus aureus ATCC 29213 after 18 hrs by broth microdilution method; assay type: functional, organism-based; conditions: ATCC 29213, 18 h, read-out: IC50
# Enterococcus faecalis [14] = experiment: Antibacterial activity against vancomycin-resistant Enterococcus faecalis ATCC 51299 after 18 hrs by broth microdilution method; assay type: functional, organism-based; conditions: ATCC 51299, 18 h, read-out: IC50
# Bacillus subtilis = experiment: Antibacterial activity against Bacillus subtilis SCSIO BS01 after 18 hrs by broth microdilution method; assay type: functional; conditions: SCSIO BS01, 18 h
# Staphylococcus aureus [15] = experiment: Ratio of levofloxacin IC50 to compound IC50 for methicillin-resistant Staphylococcus aureus 12-33 after 18 hrs by broth microdilution method; assay type: functional
# Staphylococcus aureus [16] = experiment: Antibacterial activity against methicillin-resistant Staphylococcus aureus ATCC 33591 after 18 hrs by broth microdilution method; assay type: functional, organism-based; conditions: ATCC 33591, 18 h, read-out: IC50
# Staphylococcus aureus [17] = experiment: Antibacterial activity against methicillin-resistant Staphylococcus aureus 12-33 after 18 hrs by broth microdilution method; assay type: functional, organism-based; conditions: 12-33, 18 h, read-out: IC50
# Enterococcus faecalis [18] = experiment: Antibacterial activity against vancomycin-sensitive Enterococcus faecalis 12-5 after 18 hrs by broth microdilution method; assay type: functional, organism-based; conditions: 12-5, 18 h, read-out: IC50
# Klebsiella pneumoniae [19] = experiment: Antibacterial activity against extended spectrum beta-lactamase producing Klebsiella pneumoniae ATCC 700603 after 18 hrs by broth microdilution method; assay type: functional, organism-based; conditions: ATCC 700603, 18 h
# Escherichia coli [20] = experiment: Antibacterial activity against extended spectrum beta-lactamase producing Escherichia coli 12-15 after 18 hrs by broth microdilution method; assay type: functional, organism-based; conditions: 12-15, 18 h, read-out: IC50
# Enterococcus faecium [21] = experiment: Antibacterial activity against vancomycin-resistant Enterococcus faecium ATCC 700221 after 18 hrs by broth microdilution method; assay type: functional, organism-based; conditions: ATCC 700221, 18 h, read-out: IC50
# Escherichia coli [22] = experiment: Antibacterial activity against Escherichia coli ATCC 25922 after 18 hrs by broth microdilution method; assay type: functional; conditions: ATCC 25922, 18 h
# Enterococcus faecium [23] = experiment: Antibacterial activity against vancomycin-sensitive Enterococcus faecium 12-3 after 18 hrs by broth microdilution method; assay type: functional, organism-based; conditions: 12-3, 18 h, read-out: IC50
# Klebsiella pneumoniae [24] = experiment: Antibacterial activity against extended spectrum beta-lactamase-deficient Klebsiella pneumoniae 12-4 after 18 hrs by broth microdilution method; assay type: functional, organism-based; conditions: 12-4, 18 h
# [25] = tested on: Staphylococcus epidermidis; experiment: Antibacterial activity against methicillin-resistant Staphylococcus epidermidis 12-8 after 18 hrs by broth microdilution method; assay type: functional, organism-based; conditions: 12-8, 18 h, read-out: IC50
# Staphylococcus aureus [26] = experiment: Antibacterial activity against methicillin-sensitive Staphylococcus aureus 15 after 18 hrs by broth microdilution method; assay type: functional, organism-based; conditions: Staphylococcus aureus, 15, 18 h; read-out: IC50
# Escherichia coli [27] = experiment: Antibacterial activity against extended spectrum beta-lactamase-deficient Escherichia coli ATCC 25922 after 18 hrs by broth microdilution method; assay type: functional, organism-based; conditions: ATCC 25922, 18 h, read-out: IC50
smiles,measurement,setting,value
CCCc1c(Cl)c(OC)c(Cl)c2c1Oc1c(Cl)c(O)c(Cl)c(CCC)c1C(=O)O2,MIC,Enterococcus faecium [1],4 µM
same,IC50,Escherichia coli [2],> 256 µM
same,MIC,Escherichia coli [3],> 256 µM
same,MIC,Bacillus thuringiensis,0.25 µg/mL
same,MIC,Klebsiella pneumoniae [4],> 256 µM
same,IC50,Staphylococcus aureus [5],4 µM
same,IC50,[6],2000 nM
same,MIC,Staphylococcus aureus [7],0.125 µg/mL
same,MIC,[8],4 µM
same,MIC,Enterococcus faecalis [9],4 µM
same,MIC,Klebsiella pneumoniae [10],> 256 µM
same,MIC,Enterococcus faecalis [11],4 µM
same,MIC,Klebsiella pneumoniae [12],> 256 µM
same,MIC,Staphylococcus aureus [13],4 µM
same,MIC,Enterococcus faecalis [14],4 µM
same,MIC,Bacillus subtilis,0.125 µg/mL
same,Ratio IC50,Staphylococcus aureus [15],2
same,MIC,Staphylococcus aureus [16],2000 nM
same,MIC,Staphylococcus aureus [17],4 µM
same,MIC,Enterococcus faecalis [18],4 µM
same,IC50,Klebsiella pneumoniae [19],> 256 µM
same,MIC,Escherichia coli [20],> 256 µM
same,MIC,Enterococcus faecium [21],4 µM
same,MIC,Escherichia coli [22],> 128 µg/mL
same,MIC,Enterococcus faecium [23],4 µM
same,IC50,Klebsiella pneumoniae [24],> 256 µM
same,MIC,[25],1000 nM
same,MIC,Staphylococcus aureus [26],2000 nM
same,MIC,Escherichia coli [27],> 256 µM
